According to patent publication US10752933B2, “Methods for the identification, characterization, and use of inhibitors of the fructose-asparagine utilization pathway” (priority 2015, dated 2020):
“Also recorded” adds a separate entry of the source.

Columns and labels:
Format in all cases: cell-based, Salmonella enterica serovar Typhimurium
[1] = test system: ΔfraB::kan (HMB206) fraB mutant; assay: Growth inhibition of fraB mutant by F-Asn in M9 glucose medium (IC50, IC90, MBC)
Description: (§1) FIG. 25 reflects the determination of the IC50 and IC90 of F-Asn to a fraB mutant. Wild-type (strain 14028, ●), ΔfraB::kan (HMB206, □) or Δfra island (HMB205, ▴) were grown in M9 minimal medium containing 5 mM glucose and varying concentrations of F-Asn. The data points represent the optical density obtained after 15 hours of growth at 37° C.
(§2) Growth curves were performed using clear, flat-bottom, 96-well plates. Minimal media with the specified carbon source were prepared and overnight cultures were washed twice with sterile water. In each well, 198-μl aliquots of media were inoculated with 2 μl of washed overnight cultures. A Breathe-Easy membrane film (Diversified Biotech) was placed over each 96-well plate. Growth over 18 hr at 37° C. was measured using hourly OD600 measurements in a SpectraMax M5 (Molecular Devices) Microplate Reader and SoftMax Pro 6.1 software.
(§3) To determine if F-Asn was bacteriostatic or bactericidal to the fraB mutant, the 50% and 90% inhibitory concentration (IC50 and IC90) and the minimum bactericidal concentration (MBC) were characterized. The IC50 and IC90 were determined by adding increasing concentrations of F-Asn to M9 minimal medium containing glucose as the carbon source. Growth of the fraB mutant was then monitored in these media. […] To determine the MBC, a small aliquot of these same cultures was dilution-plated onto LB agar.

[2] = test system: wild-type MA43 Salmonella; assay: Growth of Salmonella on Amadori products as sole carbon source; settings: NCE minimal medium, carbon source at 5 mM, 37° C.
Description: FIG. 2A to FIG. 2E are graphs showing growth of wild-type and fraB1::kan mutant Salmonella on Amadori products. Growth of wild-type MA43 and fraB1::kan mutant MA59 on F-Asn (FIG. 2A), F-Arg (FIG. 2B), F-Lys (FIG. 2C), asparagine, arginine, lysine, or glucose (FIG. 2D). Bacteria were grown overnight in Luria Bertani (LB) broth at 37° C. with shaking, centrifuged, resuspended in water, and subcultured 1:1000 into minimal “no carbon E” (NCE) medium (containing trace metals) and the indicated carbon source at 5 mM. The optical density at 600 nm was then read at time points during growth at 37° C. with shaking. Controls included NCE with no carbon source, and NCE with glucose that was not inoculated, as a sterility control (FIG. 2D). FIG. 2E is a graph showing complementation of a fraB1::kan mutation with plasmid pASD5006 encoding the fra island (ASD6000) or the vector control, pWSK29 (ASD6010). Each point represents the mean of three cultures with error bars indicating standard deviation. FIG. 2A to FIG. 2C: ● wild-type; ◯ fraB mutant; FIG. 2D: ● Glucose wild-type; ◯ Glucose fraB mutant; □ No carbon source; ● Sterility; ⋄ Asn wild-type; * Arg wild-type; × Lys wild type; FIG. 2E: ◯ Glucose fraB mutant+pASD5006; ● Glucose fraB mutant+vector; ▪ F-Asn fraB mutant+pASD5006; F-Asn fraB mutant+vector; y-axis: OD600; x-axis: time (hours).
Amadori products most often result from a spontaneous reaction between a carbonyl group (often of glucose, although numerous other compounds can also react) and an amino group of an amino acid in vivo, and are then referred to as non-enzymatic glycation products. Zhang et al., 8 J. Proteome. Res. 754 (2009); Tessier, 58 Pathol. Biol. 214 (2010). With F-Lys and fructose-arginine (F-Arg) this can happen with the free amino acid, or the side groups of the lysine and arginine residues of a protein. In contrast, fructose-asparagine (F-Asn) can only result from reaction of glucose with the alpha amino group of free asparagine or the N-terminal asparagine of a protein. […]

[3] = test system: Wild-type (strain 14028); assay: Growth inhibition by F-Asn in M9 glucose medium, wild-type; settings: M9 minimal medium with glucose and F-Asn
Description: as §1, §2, §3

[4] = test system: wild-type MA43 Salmonella; assay: Growth with F-Asn under aerobic and anaerobic conditions with or without tetrathionate; settings: 5 mM F-Asn
Description: FIG. 4A to FIG. 4D show growth of Salmonella on F-Asn in the presence or absence of tetrathionate or oxygen. Growth of wild-type MA43 and fraB1::kan mutant MA59 on 5 mM F-Asn or 5 mM glucose anaerobically (FIG. 4A and FIG. 4B) or aerobically (FIG. 4C and FIG. 4D) in the presence (FIG. 4A and FIG. 4C) or absence (FIG. 4B and FIG. 4D) of 40 mM tetrathionate (S406 22). Bacteria were grown overnight in LB at 37° C. shaking, centrifuged, resuspended in water, and subcultured 1:1000 into NCE medium containing the indicated carbon source. The optical density at 600 nm was then read at time points during growth at 37° C. with shaking. Each point represents the mean of four cultures with error bars indicating standard deviation. ● F-Asn wild-type; ▪ F-Asn fraB mutant; ▴ Glucose wild-type; ▾ Glucose fraB mutant; x-axis: time (hours); y-axis: OD600.
Growth with F-Asn was tested under aerobic and anaerobic conditions in the presence or absence of the terminal electron acceptor tetrathionate (FIG. 4A to FIG. 4D). […] Competition experiments in which the wild-type and fraB1::kan mutant were grown in the same culture were performed in minimal medium containing F-Asn. As expected, the mutant was severely attenuated during aerobic and anaerobic growth, and in the presence or absence of tetrathionate (FIG. 5). Indeed, the attenuation was most severe during anaerobic growth in the presence of tetrathionate.

[5] = test system: Δfra island (HMB205); assay: Growth inhibition by F-Asn in M9 glucose medium, fra island mutant; settings: M9 minimal medium with glucose and F-Asn
Description: as §1, §2, §3

Molecule	IC50 ([1]; Salmonella enterica, M9 minimal medium, 5 mM glucose, varying F-Asn, optical density after 15 hours at 37° C., 95% confidence interval 9 to 40 μM)	IC90 ([1]; Salmonella enterica, M9 minimal medium, 5 mM glucose, varying F-Asn, optical density after 15 hours at 37° C., 95% confidence interval 82 to 368 μM)	minimum bactericidal concentration (MBC) ([1]; aliquot of IC50 cultures dilution-plated onto LB agar, up to highest F-Asn concentrations tested)	bacteriostatic or bactericidal to the fraB mutant ([1]; in vitro, cultures dilution-plated onto LB agar)	growth on Amadori product as sole carbon source [2]	inhibitory to growth [3]	Salmonella doubling time on F-Asn ([4]; aerobically with tetrathionate)	Salmonella doubling time on F-Asn ([4]; aerobically without tetrathionate)	Salmonella doubling time on F-Asn ([4]; anaerobically with tetrathionate)	Salmonella doubling time on F-Asn ([4]; anaerobically without tetrathionate)	inhibitory to growth [5]
NC(=O)C[C@@H](NCC1(O)OC[C@@H](O)[C@@H](O)[C@@H]1O)C(=O)O (stereo partly drawn) [F-Asn, (2R)-4-amino-4-oxo-2-[[(3S,4R,5R)-2,3,4,5-tetrahydroxyoxan-2-yl]methylamino]butanoic acid]	19 µM	174 µM	no MBC was revealed	bacteriostatic; also recorded: bacteriostatic, not bactericidal	grew as well on F-Asn as on glucose	not	1.6 ± 0.1 h	2.0 ± 0.3 h	1.9 ± 0.1 h	2.9 ± 0.4 h	not
fructose-arginine [F-Arg]	–	–	–	–	unable to grow	–	–	–	–	–	–
fructose-lysine [F-Lys]	–	–	–	–	grew slowly and with low yield	–	–	–	–	–	–
